# Data from PMC6891286, “Towards the Development of an In vivo Chemical Probe for Cyclin G Associated Kinase (GAK)” (Molecules, 2019).
# Like-named read-outs stand apart in the source and are kept apart here.
# What was measured:
# CYP2C8 = tested on: CYP2C8; design: method as in PMID 18936109; conditions: cited from earlier work
# CYP2D6 = tested on: CYP2D6; design: method as in PMID 18936109; conditions: cited from earlier work
# CYP1A2 = tested on: CYP1A2; design: method as in PMID 18936109; conditions: cited from earlier work
# CYP2B6 = tested on: CYP2B6; design: method as in PMID 18936109; conditions: cited from earlier work
# CYP3A4 = tested on: CYP3A4; design: method as in PMID 18936109; conditions: cited from earlier work
# CYP2A6 = tested on: CYP2A6; design: method as in PMID 18936109; conditions: cited from earlier work
# CYP2C9 = tested on: CYP2C9; design: method as in PMID 18936109; conditions: cited from earlier work
# CYP2C19 = tested on: CYP2C19; design: method as in PMID 18936109; conditions: cited from earlier work
# AAK1 = AAK1 (Homo sapiens, UniProt Q2M2I8); assay: NAK family TR-FRET binding displacement assay; conditions: NAK family FRET screening
# [1] = pharmacokinetic profiling in mice, oral dosing; assay type: in vivo; conditions: C57BL/6 mice, 10 mg/kg po; for Cmax / AUC(0-inf) / Tmax: 10 mg/kg
# Description: Pharmacokinetic profiling was performed by SAI Life Sciences (Hyderabad, India). […] Prior approval of the Institutional Animal Ethics Committee (IAEC) was obtained before initiation of the study. Healthy male C57BL/6 mice (8–12 weeks old) weighing between 20 and 35 g were procured from (Envigo Research Private Ltd., City, Hyderabad, India). Three mice were housed in each cage. […] Temperature and humidity were recorded by an automatically controlled data logger system. All animals were provided a laboratory rodent diet (Envigo Research Private Ltd., Hyderabad, India). Reverse osmosis water treated with ultraviolet light was provided ad libitum. Eighteen male mice were weighed and divided in to two groups (Group 1 and Group 2), with nine mice in each group. […] The dosing volume administered was 10 mL/kg for the oral route. […] Plasma samples were separated by centrifugation at 4000 rpm for 10 min and stored below −70 °C until bioanalysis. […] The plasma concentration-time data were then used for the pharmacokinetic analysis. A non-compartmental analysis module in Phoenix WinNonlin (Version 6.3, Certara USA Inc., Raleigh, NC, USA) was used to assess the pharmacokinetic parameters. Maximum concentration (Cmax) and time to reach the maximum concentration (Tmax) were the observed values. The areas under the concentration time curve (AUClast and AUCinf) were calculated by linear trapezoidal rule.
# Kinetic Solubility = assay type: physicochemical; conditions: pH 7.4, aqueous buffer, kinetic from dmso stock, PBS pH7.4 (100 µM)
# GAK = target: T1, GAK (Homo sapiens, UniProt O14976); design: method as in PMID 30768268, PMID 30973735; conditions: cited from earlier work
# T1 sequence (O14976 1-1311): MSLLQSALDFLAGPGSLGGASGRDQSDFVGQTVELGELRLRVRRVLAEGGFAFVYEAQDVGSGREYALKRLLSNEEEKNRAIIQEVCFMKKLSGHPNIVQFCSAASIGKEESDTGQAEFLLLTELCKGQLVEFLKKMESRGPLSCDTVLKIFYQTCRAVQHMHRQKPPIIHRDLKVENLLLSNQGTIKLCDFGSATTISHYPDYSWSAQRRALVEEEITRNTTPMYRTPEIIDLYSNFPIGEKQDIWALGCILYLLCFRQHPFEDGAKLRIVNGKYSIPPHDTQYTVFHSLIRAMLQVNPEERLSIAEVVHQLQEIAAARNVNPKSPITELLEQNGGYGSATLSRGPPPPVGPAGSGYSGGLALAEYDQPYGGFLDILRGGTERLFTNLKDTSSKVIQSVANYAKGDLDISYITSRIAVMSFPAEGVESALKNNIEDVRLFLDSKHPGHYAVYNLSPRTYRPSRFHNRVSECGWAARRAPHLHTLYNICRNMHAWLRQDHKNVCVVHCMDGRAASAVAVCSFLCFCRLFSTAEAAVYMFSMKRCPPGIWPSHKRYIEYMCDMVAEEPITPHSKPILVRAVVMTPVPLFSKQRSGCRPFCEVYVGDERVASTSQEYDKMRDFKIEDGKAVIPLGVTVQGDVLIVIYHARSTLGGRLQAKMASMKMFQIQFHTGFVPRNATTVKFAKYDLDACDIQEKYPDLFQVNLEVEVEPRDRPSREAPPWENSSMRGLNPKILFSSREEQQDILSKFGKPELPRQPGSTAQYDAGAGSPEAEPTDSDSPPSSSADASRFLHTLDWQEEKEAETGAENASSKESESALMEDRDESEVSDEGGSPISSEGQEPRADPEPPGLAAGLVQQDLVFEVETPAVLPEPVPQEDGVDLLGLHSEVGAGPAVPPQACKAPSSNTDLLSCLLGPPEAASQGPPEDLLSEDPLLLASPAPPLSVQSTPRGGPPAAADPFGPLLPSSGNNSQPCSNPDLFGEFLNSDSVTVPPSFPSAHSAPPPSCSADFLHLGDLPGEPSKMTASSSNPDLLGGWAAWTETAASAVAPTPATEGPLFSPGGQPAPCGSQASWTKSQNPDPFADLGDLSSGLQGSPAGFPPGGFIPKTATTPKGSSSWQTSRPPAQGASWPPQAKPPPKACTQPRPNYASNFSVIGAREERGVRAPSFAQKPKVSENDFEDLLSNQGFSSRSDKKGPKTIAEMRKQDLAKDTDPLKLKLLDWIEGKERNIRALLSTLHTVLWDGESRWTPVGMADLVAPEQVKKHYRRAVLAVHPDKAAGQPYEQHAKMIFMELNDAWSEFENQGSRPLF
# [2] = mouse liver microsome metabolic stability; conditions: for CLint scaled / half-life: mouse, mouse liver microsomes; for half-life: mean average, n = 2
# Description: SGC-GAK-1 (1) was incubated with MLMs in the presence or absence of added NADPH, and the compound was quantified at various time points over an hour.
# The metabolic stability of the 4-anilinoquinolines (8–13) were evaluated in MLMs (Table 1). Half-lives for metabolic clearance were normalized to propranolol in each experimental run to control for variations in the MLM preparations.
# [3] = tested on: prostate cancer cells that contain constitutively-active splice variants of the androgen receptor; design: method as in PMID 30973735; conditions: cited from earlier work
# STK16 = STK16 (Homo sapiens, UniProt O75716); assay: NAK family TR-FRET binding displacement assay; conditions: NAK family FRET screening; read-out: Binding displacement assay STK16 Ki
# [4] = male, C57BL/6, mouse, plasma, po, 2 h pretreat 50 mpk ABT
# [5] = male, C57BL/6, mouse, plasma, po, without ABT
# Sequence of STK16 (O75716 whole entry): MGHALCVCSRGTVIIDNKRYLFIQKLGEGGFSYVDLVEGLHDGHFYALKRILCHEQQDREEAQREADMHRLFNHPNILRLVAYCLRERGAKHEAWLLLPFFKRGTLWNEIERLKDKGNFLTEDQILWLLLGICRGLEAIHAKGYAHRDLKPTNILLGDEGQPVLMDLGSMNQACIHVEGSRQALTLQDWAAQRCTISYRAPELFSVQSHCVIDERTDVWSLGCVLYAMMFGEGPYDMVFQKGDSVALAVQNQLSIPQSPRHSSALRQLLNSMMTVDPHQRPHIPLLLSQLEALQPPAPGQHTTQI
# Sequence of AAK1 (Q2M2I8 whole entry): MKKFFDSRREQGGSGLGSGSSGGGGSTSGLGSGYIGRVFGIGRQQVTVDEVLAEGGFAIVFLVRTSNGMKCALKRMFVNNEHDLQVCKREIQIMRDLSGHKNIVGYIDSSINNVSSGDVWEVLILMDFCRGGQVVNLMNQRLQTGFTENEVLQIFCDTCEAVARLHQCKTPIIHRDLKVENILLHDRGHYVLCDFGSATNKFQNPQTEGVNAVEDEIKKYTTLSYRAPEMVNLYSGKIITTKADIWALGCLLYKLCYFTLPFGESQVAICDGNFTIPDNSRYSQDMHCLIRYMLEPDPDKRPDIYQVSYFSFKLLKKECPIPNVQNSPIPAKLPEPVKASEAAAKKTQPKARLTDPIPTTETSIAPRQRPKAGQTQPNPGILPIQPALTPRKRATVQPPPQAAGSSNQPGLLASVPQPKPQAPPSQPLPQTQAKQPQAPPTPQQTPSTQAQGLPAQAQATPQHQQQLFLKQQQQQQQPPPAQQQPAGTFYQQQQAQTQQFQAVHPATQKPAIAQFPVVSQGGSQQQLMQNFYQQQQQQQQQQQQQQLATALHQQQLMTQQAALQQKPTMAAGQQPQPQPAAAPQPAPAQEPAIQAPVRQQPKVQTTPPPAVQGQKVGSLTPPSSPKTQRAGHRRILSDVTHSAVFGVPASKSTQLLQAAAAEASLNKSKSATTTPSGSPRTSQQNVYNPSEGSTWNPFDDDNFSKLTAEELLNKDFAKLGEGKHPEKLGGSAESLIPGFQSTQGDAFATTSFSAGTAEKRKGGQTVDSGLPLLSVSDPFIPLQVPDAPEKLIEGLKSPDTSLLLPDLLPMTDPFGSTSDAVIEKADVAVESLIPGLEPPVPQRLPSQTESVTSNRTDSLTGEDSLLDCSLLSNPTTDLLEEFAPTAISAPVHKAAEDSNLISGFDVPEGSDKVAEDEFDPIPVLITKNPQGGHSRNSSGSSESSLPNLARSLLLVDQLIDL
smiles,measurement,setting,value
"Nn1nnc2ccccc21 [ABT, 1-aminobenzotriazole]",residual activity CYP2C8,CYP2C8,up to 20%
same,residual activity CYP2D6,CYP2D6,up to 20%
same,residual activity CYP1A2,CYP1A2,up to 20%
same,residual activity CYP2B6,CYP2B6,up to 20%
same,inhibition of CYP3A4 activity,CYP3A4,100%
same,inhibition of CYP2A6 activity,CYP2A6,100%
same,CYP2C9 activity remaining,CYP2C9,60%
same,residual activity CYP2C19,CYP2C19,up to 20%
COc1cc(Nc2ccnc3ccc(Br)cc23)cc(OC)c1OC [Compound 1],Ki,AAK1,53 µM
same,Cmax,[1]; without ABT,97 ng/mL
same,AUC(0-inf),[1]; [4],1900 ng·h/mL
same,Tmax,[1]; [4],30 min
same,Cmax,"[1]; male, C57BL/6, mouse, plasma, po, 2 h pretreat 50 mpk ABT, read-out: Cmax",650 ng/mL
same,AUC(0-inf),[1]; [5],98 ng·h/mL
same,Tmax,[1]; [5],30 min
same,Cmax,"[1]; male, C57BL/6, mouse, plasma, po, without ABT, read-out: Cmax",< 100 ng/mL
same,half-life,"[1]; male, mouse, plasma, without ABT, read-out: T1/2 in mice",< 60 min
same,solubility kinetic,Kinetic Solubility; read-out: Kinetic Solubility µM,57.8 µM
same,solubility kinetic,Kinetic Solubility; read-out: Kinetic Solubility µg/mL,22.5 µg/mL
same,GAK DSF ΔTm,GAK,7.7 °C
same,degradation in MLM,"[2]; mouse liver microsomes in the absence of NADPH, over an hour",No degradation
same,CLint scaled,"[2]; Clint (mL/min/kg) (+) ABT, (+) ABT",40 mL/min/kg
same,CLint scaled,"[2]; Clint (mL/min/kg) (−) ABT, (−) ABT",990 mL/min/kg
same,half-life,"[2]; T1/2 (min) (+) ABT, (+) ABT",130 min
same,half-life,"[2]; T1/2 (min) (−) ABT, (−) ABT",5.7 min
same,half-life,"[2]; T1/2 (min), mouse liver microsomes with NADPH",5.7 min
same,viability of prostate cancer cells,[3],potently inhibits
same,Ki,STK16,51 µM
